Measured values published in patent publication US20030232871A1 (priority 2002, published 2003).
“Also recorded” adds a separate entry of the source.

Tests used:
[1] = Moisture sorption (Dynamic Vapor Water Sorption analyzer); format: physicochemical; conditions: 25° C.; for hygroscopicity compared with Form A: up to about 80% RH
Procedure: Moisture sorption data were collected at 25° C. from 0% to 80% RH using a Surface Measurement Systems Dynamic Vapor Water Sorption analyzer. The equilibrium window was for a dm/dT of 0.0003 or a maximum time of 120 minutes.

[2] = True density by helium pycnometry; format: physicochemical
[3] = Thermodynamic parameters from eutectic melting data (ΔG−T and ΔG/T−1/T plots); format: physicochemical; conditions: for Tt (transition temperature): LT form to HT = Form A, calculated as Tt=ΔH/ΔS; for ΔH / ΔS: transition of low temperature form (LT) to HT = Form A, derived from eutectic melting data
Procedure: Based on the Heat of Transition Rule both Forms B and E are believed to be enantiotropically related to Form A, meaning there is a change in the stability relationship between the forms around a transition temperature Tt. Determination of Tt for Forms B and E with respect to Form A was performed by the use of eutectic melting data. Eutectics were formed between a reference compound (RC) and each of Forms A, B and E of parecoxib sodium. Subsequently heat of fusion data were used to derive the free energy difference between the crystal forms at the eutectic temperature (equation I): xej(Gj-Gi)Tei=Δ[…])]} (equation I) wherein xej and xei are the mole fraction of crystal forms j and i respectively in the eutectic; (Gj-Gi) is the free energy difference between crystal forms i and j at Tei; ΔHmej and ΔHmei are the enthalpy of eutectic melting of crystal forms j and i respectively; Tei and Tej are the temperatures of eutectic melting of crystal forms i and j respectively; ΔCpij is the heat capacity change across the eutectic melt; and R is the ideal gas constant. […] By definition, the free energy difference between crystal forms is zero at the transition temperature. The transition temperature given in Table 5 above was calculated according to equation II: Tt=ΔH/ΔS (equation II)

[4] = Solution calorimetry (heat of solution); format: physicochemical; conditions: LT form / Form A pair
COX-1 = COX-1 (Homo sapiens, UniProt P23219); conditions: background statement; cited from earlier work
Sequence of COX-1 (P23219 24-599): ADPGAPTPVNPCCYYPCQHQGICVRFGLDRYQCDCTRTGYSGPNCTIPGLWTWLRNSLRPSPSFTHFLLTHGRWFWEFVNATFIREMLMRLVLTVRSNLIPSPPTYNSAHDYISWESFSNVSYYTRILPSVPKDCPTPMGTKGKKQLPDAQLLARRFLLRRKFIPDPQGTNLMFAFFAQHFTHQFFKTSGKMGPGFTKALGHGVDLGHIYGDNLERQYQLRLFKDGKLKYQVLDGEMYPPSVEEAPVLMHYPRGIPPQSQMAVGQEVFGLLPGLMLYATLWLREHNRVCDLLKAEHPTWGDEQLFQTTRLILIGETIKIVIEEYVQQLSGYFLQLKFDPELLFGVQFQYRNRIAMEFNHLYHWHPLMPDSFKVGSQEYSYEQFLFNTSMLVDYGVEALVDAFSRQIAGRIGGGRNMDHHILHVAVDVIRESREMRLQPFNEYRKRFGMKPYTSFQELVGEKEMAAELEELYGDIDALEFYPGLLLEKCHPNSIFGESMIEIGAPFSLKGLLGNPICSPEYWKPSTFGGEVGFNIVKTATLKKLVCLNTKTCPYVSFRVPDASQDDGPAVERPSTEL

SMILES | moisture sorbed ([1]; 0-60% RH range) | true density [2] [g/mL] | hygroscopicity compared with Form A [1] | Tt (transition temperature) [3] [°C] | ΔH [3] [kcal/mol] | ΔS [3] [J/mole/K] | ΔH from heat of solution data [4] [kcal/mol] | behaviour above 60% RH ([1]; above 60% RH) | in vitro inhibitory activity against COX-1 (COX-1)
CCC(=O)[N-]S(=O)(=O)c1ccc(-c2c(-c3ccccc3)noc2C)cc1.[Na+] [Form A, parecoxib sodium] | less than 1% | 1.34 ± 0.01 | – | – | – | – | – | deliquesced; also recorded: greater tendency to sorb water and even to deliquesce | –
CCC(=O)NS(=O)(=O)c1ccc(-c2c(-c3ccccc3)noc2C)cc1 [Parecoxib] | – | – | – | – | – | – | – | – | weak
Cc1onc(-c2ccccc2)c1-c1ccc(S(N)(=O)=O)cc1 [valdecoxib] | – | – | – | – | – | – | – | – | weak

Continued, in another order:

moisture sorbed ([1]; 0-60% RH range) | true density [2] [g/mL] | hygroscopicity compared with Form A [1] | Tt (transition temperature) [3] [°C] | ΔH [3] [kcal/mol] | ΔS [3] [J/mole/K] | ΔH from heat of solution data [4] [kcal/mol] | SMILES | behaviour above 60% RH ([1]; above 60% RH) | in vitro inhibitory activity against COX-1 (COX-1)
– | 1.46 ± 0.01 | less hygroscopic than Form A | 163.3 | 3.975 | 38.1 | 3.666 | CCC(=O)[N-]S(=O)(=O)c1ccc(-c2c(-c3ccccc3)noc2C)cc1.[Na+] [Form B, parecoxib sodium] | – | –
– | 1.42 ± 0.01 | less hygroscopic than Form A | 163.9 | 4.099 | 39.2 | 4.288 | CCC(=O)[N-]S(=O)(=O)c1ccc(-c2c(-c3ccccc3)noc2C)cc1.[Na+] [Form E, parecoxib sodium] | – | –
